Test results from patent US20210017180A1, “PYCLEN-BASED MACROCYCLIC LIGANDS, CHELATES THEREOF AND USES THEREOF” (CENTRE NATIONAL DE LA RECHERCHE SCIENTIFIQUE, priority 2018, published 2021).

Experiment: Brightness B = Φ * εmax
Assay type: physicochemical
Conditions: versus chelate of unsubstituted ligand (Table 7)
From the text: • “Brightness (B)” refers to the amount of radiation emitted by a chromophore or dye. In the case of one-photon absorption, B is defined as the product of the emission quantum yield (Φ) by the molar absorption coefficient (ε), i.e., B=ε·Φ, at a given excitation wavelength. In the case of two-photon absorption, B is defined as the product of the emission quantum yield (Φ) by the cross section (σ), i.e., […], at a given excitation wavelength. • “Carboxylate ester” refers to an ester of a molecule, said molecule comprising at least one carboxylic acid function (—COOH), wherein the ester is formed by esterification of at least one carboxylic acid function of the molecule. Preferred carboxylic esters are methyl esters. “Mono-ester”, “di-ester” and “tri-ester” respectively refers to esters wherein exactly one, two and three carboxylic acid functions have been esterified. • “Carboxylate salt” refers to a salt of a molecule, said molecule comprising at least one carboxylic acid function (—COOH), wherein the salt is formed by deprotonation of at least one carboxylic acid function of the molecule. Preferred carboxylic salts are potassium or sodium salts, more preferably potassium salts. […]

SMILES: COCCOCCOCCOc1ccc(C#Cc2cc(CN3CCN(CC(=O)[O-])Cc4cccc(n4)CN(Cc4cc(C#Cc5ccc(OCCOCCOCCOC)cc5)cc(C(=O)[O-])n4)CC3)nc(C(=O)[O-])c2)cc1.[K+].[K+].[K+] [Complex S1, potassium 6,6′-((9-(carboxylatomethyl)-3,6,9-triaza-1(2,6)-pyridinacyclodecaphane-3,6-diyl)bis(methylene)) bis(4-((4-(2-(2-(2-methoxyethoxy)ethoxy)ethoxy)phenyl)ethynyl) picolinate)]
- increase in brightness of europium chelate on substitution of picolinate arms by chromophore: about 4 fold

SMILES: COCCOCCOCCOc1ccc(C#Cc2cc(CN3CCN(CC(=O)[O-])CCN(Cc4cc(C#Cc5ccc(OCCOCCOCCOC)cc5)cc(C(=O)[O-])n4)Cc4cccc(n4)C3)nc(C(=O)[O-])c2)cc1.[K+].[K+].[K+] [Complex S4, potassium 6,6′-((6-(carboxylatomethyl)-3,6,9-triaza-1(2,6)-pyridinacyclodecaphane-3,9-diyl)bis(methylene)) bis(4-((4-(2-(2-(2-methoxyethoxy)ethoxy)ethoxy)phenyl)ethynyl) picolinate)]
- increase in brightness of europium chelate on substitution of picolinate arms by chromophore: about 3 fold
